Target: T1, PLK2 (Homo sapiens, UniProt Q9NYY3)
T1 construct: purchased Thermo Fisher Scientific (Life Technologies) SelectScreen
Assay: SelectScreen Z'LYTE
Format: biochemical
Procedure, shortened: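 Percent values come from Thermo SelectScreen profiling of NU5455, combining activity and binding assays. CSF1R was run in Z'LYTE format at Km app ATP, and CAMK1 in Adapta format with ATP listed at 10.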

T1 sequence (Q9NYY3 whole entry): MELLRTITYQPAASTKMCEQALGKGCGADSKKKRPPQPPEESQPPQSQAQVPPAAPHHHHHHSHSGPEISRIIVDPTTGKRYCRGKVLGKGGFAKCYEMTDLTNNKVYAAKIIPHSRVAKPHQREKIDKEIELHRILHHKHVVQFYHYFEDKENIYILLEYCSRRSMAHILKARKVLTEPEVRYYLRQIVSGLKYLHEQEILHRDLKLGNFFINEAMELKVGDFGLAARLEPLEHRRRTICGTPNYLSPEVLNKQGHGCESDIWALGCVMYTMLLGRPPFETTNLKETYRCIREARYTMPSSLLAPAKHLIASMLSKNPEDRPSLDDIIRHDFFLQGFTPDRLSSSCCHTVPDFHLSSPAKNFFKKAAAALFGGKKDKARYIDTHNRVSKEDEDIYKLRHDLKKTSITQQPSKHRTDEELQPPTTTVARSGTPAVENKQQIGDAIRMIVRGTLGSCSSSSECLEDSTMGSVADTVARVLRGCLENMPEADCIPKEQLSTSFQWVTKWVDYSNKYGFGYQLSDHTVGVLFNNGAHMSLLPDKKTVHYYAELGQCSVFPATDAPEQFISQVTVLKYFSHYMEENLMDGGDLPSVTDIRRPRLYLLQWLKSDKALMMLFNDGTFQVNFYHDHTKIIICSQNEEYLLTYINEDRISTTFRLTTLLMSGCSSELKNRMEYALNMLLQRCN

CN(C(=O)CN1CCOCC1)c1ccc2sc3c(-c4cccc5c(=O)cc(N6CC7CCC(C6)O7)oc45)cccc3c2c1 [NU5455]
inhibition at 1 µM: 14.1%
